Assays:
rat ileal mucosa = assay: Intestinal mucosal permeability assay (FD4) after hemorrhagic shock; type: in vivo; conditions: intraluminal
Procedure: Intestinal mucosal permeability assay. Animals were allowed access to water but not food for 24 h prior to the experiment in order to decrease the volume of intestinal contents. The rats were instrumented as described above. A midline laparotomy was performed and the small intestine was exteriorized from the duodenojejunal junction to the ileocecal valve. A small incision was made on the antimesenteric aspect of the proximal small intestine and saline solution (1.5 ml) was injected. The bowel was ligated proximally and distally to the incision with 4-0 silk (Look, Reading, Pa.).
The small intestine was compressed gently in aboral direction along its length to displace intestinal contents into the colon. Starting 5 cm from the ileocecal valve, the ileum was partitioned into six contiguous water-tight segments. […]
The remaining four other segments were injected with solutions containing either 4-hydroxy-2,2,6,6-tetramethylpiperidine-N-oxyl (TEMPOL) or one of the Gramicidin S-based compounds. Four different final concentrations of TEMPOL in normal saline were evaluated: 0.1, 1, 5 and 20 mM. […]
Fluorescence of FD4 in the solution inside the beaker and within each gut sac was measured using a fluorescence spectrophotometer (LS-50, Perkin-Elmer, Palo Alto, Calif.) at an excitation wavelength of 492 nm and an emission wavelength of 515 nm. […]

[1] = tested on: MEF cells from Ercc1−/− mice; assay: Senescence, DNA damage, apoptosis and proliferation in Ercc1−/− MEF cells under oxidative stress; type: cell-based, mouse; conditions: for γ-H2AX immunostaining: 1 μM, 48 hours; for γ-H2AX immunostaining / level of p16: 20% oxygen; for level of p16: 1 uM, 48 hrs
Procedure: Graphs showing weight over time of treated, untreated and control animals are shown in FIG. 36A-B. To assess the impact of XJB-5-131 at a cellular level, a number of experiments were carried out using mouse embryonic fibroblasts (“MEF”) cells harvested from Ercc1^−/− mouse embryos.
To test the protective activity of JP4-039, cultures of primary MEFs were prepared from Ercc1^−/− mouse embryos and grown under 20% oxygen (ambient air), which creates oxidative stress in these cells that are hypersensitive to reactive oxygen species. The cells were then either treated with a concentration of 1 uM XJB-5-131, JP4-039, JED-E71-37 or JED-E71-58, or left untreated (media), and then after 48 hrs the level of p16, a marker of irreversible cellular senescence, was measured by immunofluorescence staining.
To evaluate the protective activities of JED-E71-37 and JED-E71-58, primary MEF cells were prepared from Ercc1^−/− mice and grown under conditions of oxidative stress (ambient air, 20% oxygen). The cells were then either untreated or treated with 1 μM JED-E71-37 or JED-E71-58 for a period of 48 hours.
Next, the abilities of these two agents, as well as XJB-5-131 and JP4-039, each at a concentration of 1 μM, were tested for their ability to prevent oxidation-induced DNA double-strand breaks in cell cultures prepared, and oxidatively stressed, as in the preceding paragraph. Treated as well as untreated cells were, after 48 hours of treatment, immunostained for γ-H2AX, a marker of DNA double-strand breaks as well as cellular senescence.

[2] = tested on: mice exposed to total body irradiation; assay: Survival of mice after total body irradiation; type: in vivo, mouse
Procedure: Mice received intraperitoneal injection of 10 mg. per kilogram of each of the chemicals indicated in FIG. 5, then 24 hours later received 9.75 Gy total body irradiation according to published methods. Mice were followed for survival according to IACUC regulations. […] (P=0.0008).
Groups of 15 mice received intraperitoneal injection of 10 mg. per kilogram of each indicated GS-nitroxide compound or carrier (Cremphora plus alcohol at 1 to 1 ratio, then diluted 1 to 10 in distilled water). Mice received 10 mg per kilogram intra-peritoneal injection 24 hours prior to total body irradiation. Control mice received radiation alone. […] (P=0.0005)
C57BL/6NHsd female mice were irradiated to 9.5 Gy whole body irradiation. At 10 min, 30 min, 1 hr, 4 hr, or 8 hr after irradiation, the mice were injected intraperitoneally with JP4-039 (10 mg/kg). The mice were followed for the development of the irradiation induced hematopoietic syndrome.
Mice were irradiated to 9.5 Gy and injected IP 10 minutes later with concentration of JP-4-039 ranging from 0.5 mg/kg to 10 mg/kg. The mice were followed for developments of the hematopoietic syndrome. The optimal dose of JP4-039 providing the best irradiation protection is 5 mg/kg.

| SMILES | hemorrhagic shock-induced mucosal hyperpermeability relative to control (rat ileal mucosa) | potency relative to TEMPOL (rat ileal mucosa) [fold] | SA-β galactosidase staining ([1]; 500 nM) | amount of apoptosis ([1]; 500 nM) | number of γH2AX foci ([1]; 500 nM) | γ-H2AX immunostaining [1] | level of p16 [1] | survival of mice ([2]; 9.5 Gy TBI, 10 mg/kg ip 24 hours prior) | optimal time of delivery for radiation mitigation ([2]; 9.5 Gy, 10 mg/kg ip after irradiation) [h] | optimal dose providing the best irradiation protection ([2]; 9.5 Gy, IP 10 minutes after irradiation) [mg/kg] | survival of mice ([2]; 9.75 Gy TBI, 10 mg/kg ip 24 hours before) |
| --- | --- | --- | --- | --- | --- | --- | --- | --- | --- | --- | --- |
| CC(C)C[C@@H](/C=C/[C@H](Cc1ccccc1)C(=O)N1CCC[C@H]1C(=O)N[C@H](C(=O)N[C@@H](CCCNC(=O)OCc1ccccc1)C(=O)NC1CC(C)(C)N([O])C(C)(C)C1)C(C)C)NC(=O)OC(C)(C)C [XJB-5-131] | approximately 60 % of the control value | ~1000 | notably less | did not reduce the amount of apoptosis | reduce the number of γH2AX foci | less effective | less effective |  |  |  |  |
| CC(C)C[C@@H](/C=C/CC(=O)NC1CC(C)(C)N([O])C(C)(C)C1)NC(=O)OC(C)(C)C [JP4-039, TEMPO-4-yl-(S,E)-5-(tert-butoxycarbonylamino)-7-methyloct-3-enamide] |  |  |  |  |  | also effective | much lower | increases survival | 1 | 5 | significant increase in survival |

— patent US8822541B2, “Use of targeted nitroxide agents in mitigating or treating radiation injury” (University of Pittsburgh—Of the Commonwealth System of …, priority 2008, dated 2014)
